Earlier results, collected in PMC5762609 (Journal of Pharmaceutical Analysis, 2016).

## CC(=O)O[C@H]1C(=O)[C@]23C[C@H]2C[C@H]2OC[C@@]2(OC(C)=O)[C@H]3[C@H](OC(=O)c2ccccc2)[C@]2(O)C[C@H](OC(=O)[C@H](O)[C@@H](NC(=O)OC(C)(C)C)c3ccccc3)C(C)=C1C2(C)C [Larotaxel]
  Content in tissues: higher in rich-blood tissues, such as heart, liver, spleen, lung and kidney
  Tissue distribution: distributed widely and rapidly
